Measured values reported in patent publication US11266650B2, “Pharmaceutical composition for preventing and treating nonalcoholic steatohepatitis, hepatic fibrosis, and liver cirrhosis, comprising adenosine derivatives” (FUTURE MEDICINE CO., LTD., priority 2016, dated 2022).

Key:
[1] = biological target: T1, human A1 adenosine receptor (hA1) (Homo sapiens, UniProt P30542); assay: Binding affinity for human A1 adenosine receptor expressed in CHO cells ([3H]CCPA); conditions: 10 μM (table footnote); read-out: percentage inhibition of specific binding, hA1
T1 construct: expressed in transfected cells; host or cells: CHO cells (ATCC No. CCL-61)
T1 sequence (P30542 1-326): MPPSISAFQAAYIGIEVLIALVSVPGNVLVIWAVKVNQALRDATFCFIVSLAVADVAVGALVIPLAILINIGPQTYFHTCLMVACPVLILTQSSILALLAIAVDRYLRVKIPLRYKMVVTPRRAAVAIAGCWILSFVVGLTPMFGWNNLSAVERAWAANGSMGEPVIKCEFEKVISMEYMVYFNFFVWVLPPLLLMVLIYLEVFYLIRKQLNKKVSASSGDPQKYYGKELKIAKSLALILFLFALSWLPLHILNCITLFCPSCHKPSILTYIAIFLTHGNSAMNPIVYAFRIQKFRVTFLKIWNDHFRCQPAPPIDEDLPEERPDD

[2] = tested on: TPA-induced inflammation of the mouse ear; assay: Anti-inflammatory activity, TPA-treated mouse ear; format: in vivo, ICR mice; conditions: for percentage of inflammation inhibition: topical, mouse ear; for anti-inflammatory activity relative to Examples 2 to 4: 0.5% in acetone, on the basis of inhibition percentage
Method: The adenosine derivatives of the present invention were examined for anti-inflammatory activity in the following animal test. Seven-week-old male ICR mice were treated with TPA (12-O-tetradecanoylphorbol-13-acetate, 20 μl) in the right ear. […] Hydrocortisone was used at the same concentration as a control.
6 hrs after treatment with TPA, the mice were secondarily treated with the adenosine derivatives of the present invention. 24 hrs after TPA treatment, test animals were euthanized using a cervical dislocation method. Samples were obtained from the right ear using a 6 mm diameter punch. The activity was observed by measuring the ear sample using a microbalance. Percentages of inhibition were calculated using the following Equation 1. The compositions and amounts used in these experiments are summarized in Tables 2 to 5 and the anti-inflammatory activities thereof are shown in FIGS. 2 to 5.

[3] = biological target: T2, human A2A adenosine receptor (hA2A) (Homo sapiens, UniProt P29274); assay: Binding affinity for A2A adenosine receptor expressed on HEK 293 cell ([3H]CGS-21680); conditions: 10 μM (table footnote); read-out: percentage inhibition of specific binding, hA2A
T2 construct: expressed in transfected cells; host or cells: HEK 293 cells
T2 sequence (P29274 whole entry): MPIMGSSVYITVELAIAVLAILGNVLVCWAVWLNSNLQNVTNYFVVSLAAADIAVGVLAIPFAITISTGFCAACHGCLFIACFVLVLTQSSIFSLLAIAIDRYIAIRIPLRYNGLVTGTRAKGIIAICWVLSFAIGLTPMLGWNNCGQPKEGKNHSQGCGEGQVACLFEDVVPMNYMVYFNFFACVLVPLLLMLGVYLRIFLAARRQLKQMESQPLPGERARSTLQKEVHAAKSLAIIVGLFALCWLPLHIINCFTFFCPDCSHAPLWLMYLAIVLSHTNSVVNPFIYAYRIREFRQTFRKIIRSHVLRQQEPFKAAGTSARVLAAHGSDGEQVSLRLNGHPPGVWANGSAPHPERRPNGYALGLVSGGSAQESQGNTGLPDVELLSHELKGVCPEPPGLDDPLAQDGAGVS

[4] = biological target: T3, human A3 adenosine receptor (hA3 AR) (Homo sapiens, UniProt P0DMS8); assay: Binding affinity for human A3 adenosine receptor expressed in CHO cells ([125I]AB-MECA)
T3 construct: expressed in transfected cells; host or cells: CHO cells (ATCC No. CCL-61)
T3 sequence (P0DMS8 1-318): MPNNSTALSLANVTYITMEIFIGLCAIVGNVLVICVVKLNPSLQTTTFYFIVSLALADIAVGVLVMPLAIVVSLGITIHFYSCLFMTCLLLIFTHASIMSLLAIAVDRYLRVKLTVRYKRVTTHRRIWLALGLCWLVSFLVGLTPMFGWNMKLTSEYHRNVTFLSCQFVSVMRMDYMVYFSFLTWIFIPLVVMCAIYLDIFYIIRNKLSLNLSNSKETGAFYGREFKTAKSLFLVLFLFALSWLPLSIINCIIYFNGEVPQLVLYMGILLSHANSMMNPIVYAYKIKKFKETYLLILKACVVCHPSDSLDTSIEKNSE

[5] = 0.5% in distilled water:acetone (1:4)

melting point	inhibition at 10 µM [1]	inhibition [3]	SMILES	other results
184 to 185 °C	34.2%	18.4%	O[C@@H]1[C@H](O)CS[C@H]1n1cnc2c(NCc3cccc(Br)c3)nc(Cl)nc21 [Example 3, (2R,3R,4S)-2-(2-Chloro-6-(3-bromobenzylamino)-9H-purin-9-yl)tetrahydrothiophen-3,4-diol]	–
181.5 to 181.7 °C	39.8%	22.8%	O[C@@H]1[C@H](O)CO[C@H]1n1cnc2c(NCc3cccc(Br)c3)nc(Cl)nc21 [Example 15, (2R,3R,4R)-2-(6-(3-bromobenzylamino)-2-chloro-9H-purin-9-yl)tetrahydrofuran-3,4-diol]	percentage of inflammation inhibition ([2]; 0.5% in DMSO:acetone (1:9)): 59%
254 to 256.9 °C	13.1%	-0.18%	O=C(O)c1cccc(CNc2nc(Cl)nc3c2ncn3[C@@H]2SC[C@@H](O)[C@H]2O)c1 [Example 9, 3-((2-chloro-9-((2R,3R,4S)-3,4-dihydroxytetrahydrothiophen-2-yl)-9H-purine-6-ylamino)methyl)benzoic acid]	inhibition at 10 µM ([4]; 10 μM (table footnote), read-out: percentage inhibition of specific binding, hA3): 41.5%
183.2 to 183.5 °C	19.8%	47.6%	O[C@@H]1[C@H](O)CS[C@H]1n1cnc2c(NCc3cccc(F)c3)nc(Cl)nc21 [Example 1, (2R,3R,4S)-2-(2-Chloro-6-(3-fluorobenzylamino)-9H-purin-9-yl)tetrahydrothiophen-3,4-diol]	anti-inflammatory activity relative to Examples 2 to 4 [2]: four or more times that of the compounds of Examples 2 to 4

The next lines start with the compound.

SMILES	melting point	inhibition at 10 µM [1]	inhibition [3]	other results
O[C@@H]1[C@H](O)CS[C@H]1n1cnc2c(NCc3ccccc3Cl)nc(Cl)nc21 [Example 5, (2R,3R,4S)-2-(2-Chloro-6-(2-chlorobenzylamino)-9H-purin-9-yl)tetrahydrothiophen-3,4-diol]	198.7 to 199.7 °C	–	–	inhibition [1]: 12.8%; percentage of inflammation inhibition [2, 5]: 17%
CNc1nc(Cl)nc2c1ncn2[C@@H]1SC[C@H](O)[C@@H]1O [Example 10, 2-(2-Chloro-6-methylamino-purin-9-yl)(2R,3 S,4R)-tetrahydrothiophen-3,4-diol]	–	55.4 ± 1.8%	45 ± 1.4%	Ki ([4]; ± SEM, [125I]AB-MECA, CHO cells): 3.69 ± 0.25 nM
O[C@@H]1[C@H](O)CS[C@H]1n1cnc2c(NCc3cccc4ccccc34)nc(Cl)nc21 [Example 8, (2R,3R,4S)-2-(2-Chloro-6-(naphthalen-1-ylmethylamino)-9H-purin-9-yl)tetrahydrothiophen-3,4-diol]	226.3 °C (dec.)	22%	-8.3%	percentage of inflammation inhibition [2, 5]: 53%
O[C@@H]1[C@H](O)CS[C@H]1n1cnc2c(NCc3cccc(Br)c3)ncnc21 [Example 13, (2R,3R,4S)-2-(6-(3-bromobenzylamino)-9H-purin-9-yl)tetrahydrothiophen-3,4-diol]	183 to 184 °C	–	–	–
O[C@@H]1[C@H](O)CS[C@H]1n1cnc2c(NCc3cccc(I)c3)ncnc21 [Example 14, (2R,3R,4S)-2-(6-(3-Iodobenzylamino)-9H-purin-9-yl)tetrahydrothiophen-3,4-diol]	198.8 to 199.8 °C	–	–	–
COc1ccc(Cl)cc1CNc1nc(Cl)nc2c1ncn2[C@@H]1SC[C@@H](O)[C@H]1O [Example 6, (2R,3R,4S)-2-(2-Chloro-6-(5-chloro-2-methoxybenzylamino)-9H-purin-9-yl)tetrahydrothiophen-3,4-diol]	188.8 to 189.8 °C	23.8%	–	anti-inflammatory activity relative to Examples 2 to 4 [2]: four or more times that of the compounds of Examples 2 to 4
COc1ccccc1CNc1nc(Cl)nc2c1ncn2[C@@H]1SC[C@@H](O)[C@H]1O [Example 7, (2R,3R,4S)-2-(2-chloro-6-(2-methoxybenzylamino)-9H-purin-9-yl)tetrahydrothiophen-3,4-diol]	188 °C	9.4%	17.5%	–
